Source: patent US20230295212A1 (ROME Therapeutics, Inc., priority 2022, published 2023)

Each molecule was assayed against T1, LINE1 reverse transcriptase (Homo sapiens, UniProt O00370) (assay: Stable artificial-intron Cis LINE1 reporter assay (HeLa Tet-On 3G, Firefly luciferase)). Conditions: HeLa L1 artificial-intron reporter cells, doxycycline 500 ng/mL, 72 h, class symbols.
T1 construct: expressed in transfected cells; host or cells: HeLa Tet-On 3G (Takara, cat no 631183)
Type: cell-based
Summary of the method: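 HeLa Tet-On 3G clone stably carrying a bi-directional doxycycline-inducible artificial-intron LINE1 reporter, plated at 8,000 cells/well onto serially diluted compound. Expression induced with 500 ng/mL doxycycline (final); Firefly luciferase luminescence (Dual-Glo) read 72 h after plating as LINE1 activity.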

T1 sequence (O00370 whole entry, looked up): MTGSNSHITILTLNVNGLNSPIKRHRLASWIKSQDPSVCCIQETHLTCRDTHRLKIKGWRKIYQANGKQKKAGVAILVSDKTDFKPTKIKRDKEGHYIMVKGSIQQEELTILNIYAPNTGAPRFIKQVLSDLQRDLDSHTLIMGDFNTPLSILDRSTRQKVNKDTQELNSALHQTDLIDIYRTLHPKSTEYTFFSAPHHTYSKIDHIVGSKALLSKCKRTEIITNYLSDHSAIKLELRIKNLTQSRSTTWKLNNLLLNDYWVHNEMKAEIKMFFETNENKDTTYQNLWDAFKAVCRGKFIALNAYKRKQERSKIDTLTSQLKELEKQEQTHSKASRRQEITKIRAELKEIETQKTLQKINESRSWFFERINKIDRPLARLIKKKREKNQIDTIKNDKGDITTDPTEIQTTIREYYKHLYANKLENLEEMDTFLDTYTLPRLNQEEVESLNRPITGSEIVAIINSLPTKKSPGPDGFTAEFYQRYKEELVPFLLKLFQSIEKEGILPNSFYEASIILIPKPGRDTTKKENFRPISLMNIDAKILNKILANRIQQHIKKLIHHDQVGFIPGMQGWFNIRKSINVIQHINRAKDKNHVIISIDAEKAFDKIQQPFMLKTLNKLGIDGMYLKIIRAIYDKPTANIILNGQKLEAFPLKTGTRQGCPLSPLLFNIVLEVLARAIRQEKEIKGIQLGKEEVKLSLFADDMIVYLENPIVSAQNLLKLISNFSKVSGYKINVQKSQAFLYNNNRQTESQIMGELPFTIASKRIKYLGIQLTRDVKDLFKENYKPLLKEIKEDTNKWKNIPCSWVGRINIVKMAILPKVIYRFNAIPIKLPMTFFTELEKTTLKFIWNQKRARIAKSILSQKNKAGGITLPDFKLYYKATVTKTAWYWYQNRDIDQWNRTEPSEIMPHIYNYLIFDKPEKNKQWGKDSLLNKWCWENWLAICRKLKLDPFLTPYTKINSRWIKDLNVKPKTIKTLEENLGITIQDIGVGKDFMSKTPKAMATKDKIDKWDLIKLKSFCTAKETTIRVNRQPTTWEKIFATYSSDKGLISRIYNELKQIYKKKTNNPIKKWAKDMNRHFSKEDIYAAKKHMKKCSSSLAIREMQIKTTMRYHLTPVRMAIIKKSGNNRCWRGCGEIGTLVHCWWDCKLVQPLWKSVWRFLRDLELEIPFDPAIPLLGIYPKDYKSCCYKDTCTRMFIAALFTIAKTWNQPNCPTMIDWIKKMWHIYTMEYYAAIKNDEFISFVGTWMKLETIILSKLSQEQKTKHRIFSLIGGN

IC50 | Compound
100 to 250 nM | Nc1nc(=O)n([C@@H]2O[C@](/C=C/Cl)(CO)[C@@H](O)[C@@H]2F)cc1F [Compound 131, 4-amino-1-[(2R,3S,4R,5R)-5(E)-(2-chloroethenyl)-3-fluoro-4-hydroxy-5-(hydroxymethyl)oxolan-2-yl]-5-fluoropyrimidin-2-one]
250 to 1000 nM | CC(C)C(=O)OC[C@@]1(CCl)O[C@@H](n2ccc(N)nc2=O)[C@H](F)[C@@H]1OC(=O)C(C)C [Compound 24, (2R,3R,4R,5R)-5-(4-amino-2-oxopyrimidin-1(2H)-yl)-2-(chloromethyl)-4-fluoro-2-((isobutyryloxy)methyl) tetrahydrofuran-3-yl isobutyrate]
250 to 1000 nM | C=C[C@]1(COC(=O)C(C)C)O[C@@H](n2ccc(N)nc2=O)C[C@@H]1OC(=O)C(C)C [Compound 53, [(2R,3S,5R)-5-(4-amino-2-oxopyrimidin-1-yl)-2-ethenyl-3-[(2-methylpropanoyl)oxy]oxolan-2-yl] methyl 2-methylpropanoate]
100 to 250 nM | Nc1ccn([C@@H]2O[C@@](CO)(CCl)[C@@H](O)[C@@H]2O)c(=O)n1 [Compound 114, 4-amino-1-((2R,3S,4S,5R)-5-(chloromethyl)-3,4-dihydroxy-5-(hydroxymethyl)tetrahydrofuran-2-yl)pyrimidin-2(1H)-one]
50 to 100 nM | Nc1nc2c(ncn2[C@H]2C[C@H](O)[C@](CO)(CF)O2)c(=O)[nH]1 [Compound 46, 2-amino-9-((2R,4S,5R)-5-(fluoromethyl)-4-hydroxy-5-(hydroxymethyl)tetrahydrofuran-2-yl)-1,9-dihydro-6H-purin-6-one]
250 to 1000 nM | C[C@@H]1[C@H](n2ccc(N)nc2=O)O[C@](C)(CO)[C@H]1O [Compound 19, 4-amino-1-((2R,3S,4S,5R)-4-hydroxy-5-(hydroxymethyl)-3,5-dimethyltetrahydrofuran-2-yl)pyrimidin-2(1H)-one]
50 to 100 nM | Cc1cn([C@@H]2O[C@@](CO)(N=[N+]=[N-])[C@@H](O)[C@@H]2F)c(=O)[nH]c1=O [Compound 178, 1-((2R,3S,4R,5R)-5-azido-3-fluoro-4-hydroxy-5-(hydroxymethyl)tetrahydrofuran-2-yl)-5-methylpyrimidine-2,4(1H,3H)-dione]
50 to 100 nM | Nc1ccn([C@@H]2O[C@@](CO)(CCl)[C@@H](O)C2(F)F)c(=O)n1 [Compound 119, 4-amino-1-((2R,4R,5R)-5-(chloromethyl)-3,3-difluoro-4-hydroxy-5-(hydroxymethyl)tetrahydrofuran-2-yl)pyrimidin-2(1H)-one]
≤ 50 nM | C=C[C@]1(CO)O[C@@H](n2cc(F)c(N)nc2=O)C[C@@H]1O [Compound 74, 4-amino-5-fluoro-1-((2R,4S,5R)-4-hydroxy-5-(hydroxymethyl)-5-vinyltetrahydrofuran-2-yl)pyrimidin-2(1H)-one]
≤ 50 nM | CC[C@]1(CO)O[C@@H](n2ccc(N)nc2=O)[C@@H](F)[C@@H]1O [Compound 51, 4-amino-1-((2R,3S,4R,5R)-5-ethyl-3-fluoro-4-hydroxy-5-(hydroxymethyl)tetrahydrofuran-2-yl)pyrimidin-2(1H)-one]
≤ 50 nM | C[C@]1(CO)O[C@@H](n2ccc(N)nc2=O)C[C@@H]1O [Compound 106, 4-amino-1-((2R,4S,5R)-4-hydroxy-5-(hydroxymethyl)-5-methyltetrahydrofuran-2-yl)pyrimidin-2(1H)-one]
250 to 1000 nM | C#C[C@]1(CO)O[C@@H](n2cc(C)c(=O)[nH]c2=O)[C@@H](F)[C@@H]1O [Compound 39, 1-((2R,3S,4R,5R)-5-ethynyl-3-fluoro-4-hydroxy-5-(hydroxymethyl)tetrahydrofuran-2-yl)-5-methylpyrimidine-2,4(1H,3H)-dione]
250 to 1000 nM | CC(C)C(=O)OC[C@@]1(CCl)O[C@@H](n2cc(F)c(N)nc2=O)[C@@H](F)[C@@H]1OC(=O)C(C)C [Compound 173, (2R,3R,4S,5R)-5-(4-amino-5-fluoro-2-oxopyrimidin-1(2H)-yl)-2-(chloromethyl)-4-fluoro-2-((isobutyryloxy)methyl)tetrahydrofuran-3-yl isobutyrate]
> 1000 nM | Nc1nc(F)nc2c1ncn2[C@H]1C[C@H](O)C(CO)(CO)O1 [Compound 10, ((3S,5R)-5-(6-amino-2-fluoro-9H-purin-9-yl)-3-hydroxytetrahydrofuran-2,2-diyl)dimethanol]
> 1000 nM | Nc1nc2c(ncn2[C@@H]2O[C@@](CO)(CF)[C@@H](O)[C@@H]2F)c(=O)[nH]1 [Compound 83, 2-amino-9-((2R,3S,4R,5R)-3-fluoro-5-(fluoromethyl)-4-hydroxy-5-(hydroxymethyl)tetrahydrofuran-2-yl)-1,9-dihydro-6H-purin-6-one]
≤ 50 nM | C=C[C@]1(CO)O[C@@H](n2cnc3c(O)nc(N)nc32)C[C@@H]1O [Compound 69, 2-amino-9-((2R,4S,5R)-4-hydroxy-5-(hydroxymethyl)-5-vinyltetrahydrofuran-2-yl)-1,9-dihydro-6H-purin-6-one]
50 to 100 nM | C#C[C@]1(CO)O[C@@H](n2cnc3c(N)nc(Cl)nc32)[C@@H](F)[C@@H]1O [Compound 5, (2R,3R,4S,5R)-5-(6-amino-2-chloro-9H-purin-9-yl)-2-ethynyl-4-fluoro-2-(hydroxymethyl)tetrahydrofuran-3-ol]
50 to 100 nM | CC[C@]1(CO)O[C@@H](n2cnc3c(N)nc(F)nc32)C[C@@H]1O [Compound 64, (2R,3S,5R)-5-(6-amino-2-fluoro-9H-purin-9-yl)-2-ethyl-2-(hydroxymethyl)tetrahydrofuran-3-ol]
100 to 250 nM | C#C[C@]1(CO)O[C@@H](n2cc(F)c(N)nc2=O)[C@@H](O)[C@@H]1O [Compound 116, 4-amino-1-((2R,3S,4S,5R)-5-ethynyl-3,4-dihydroxy-5-(hydroxymethyl)tetrahydrofuran-2-yl)-5-fluoropyrimidin-2(1H)-one]
≤ 50 nM | [N-]=[N+]=N[C@]1(CO)O[C@@H](n2ccc(N)nc2=O)[C@@H](F)[C@@H]1O [Compound 50, 4-amino-1-((2R,3S,4R,5R)-5-azido-3-fluoro-4-hydroxy-5-(hydroxymethyl)tetrahydrofuran-2-yl)pyrimidin-2(1H)-one]
250 to 1000 nM | Nc1ccn([C@H]2C[C@H](O)[C@](CO)(CC(F)(F)F)O2)c(=O)n1 [Compound 62, 4-amino-1-[(2R,4S,5R)-4-hydroxy-5-(hydroxymethyl)-5-(2,2,2-trifluoroethyl)oxolan-2-yl] pyrimidin-2-one]
≤ 50 nM | [N-]=[N+]=N[C@]1(CO)O[C@@H](c2ccc3c(N)ncnn23)C[C@@H]1O [Compound 92, (2R,3S,5R)-5-(4-aminopyrrolo[2,1-f][1,2,4]triazin-7-yl)-2-azido-2-(hydroxymethyl)tetrahydrofuran-3-ol]
≤ 50 nM | CC[C@]1(CO)O[C@@H](n2cc(F)c(N)nc2=O)C[C@@H]1O [Compound 82, 4-amino-1-((2R,4S,5R)-5-ethyl-4-hydroxy-5-(hydroxymethyl)tetrahydrofuran-2-yl)-5-fluoropyrimidin-2(1H)-one]
250 to 1000 nM | Nc1ccn([C@H]2C[C@H](O)[C@](CO)(C(F)F)O2)c(=O)n1 [Compound 110, 4-amino-1-((2R,4S,5R)-5-(difluoromethyl)-4-hydroxy-5-(hydroxymethyl)-tetrahydrofuran-2-yl)pyrimidin-2(1H)-one]
≤ 50 nM | [N-]=[N+]=N[C@]1(CO)O[C@@H](n2cc(F)c(N)nc2=O)C[C@@H]1O [Compound 61, 4-amino-1-((2R,4S,5R)-5-azido-4-hydroxy-5-(hydroxymethyl)tetrahydrofuran-2-yl)-5-fluoropyrimidin-2(1H)-one]

Compound | IC50
C#C[C@]1(CO)O[C@@H](n2ccc(N)nc2=O)C[C@@H]1O [Compound 41, 4-amino-1-((2R,4S,5R)-5-ethynyl-4-hydroxy-5-(hydroxymethyl)tetrahydrofuran-2-yl)pyrimidin-2(1H)-one] | ≤ 50 nM
C=C[C@]1(CO)O[C@@H](n2ccc(N)nc2=O)C[C@@H]1O [Compound 43, 4-amino-1-((2R,4S,5R)-4-hydroxy-5-(hydroxymethyl)-5-vinyltetrahydrofuran-2-yl)pyrimidin-2(1H)-one] | ≤ 50 nM

Same assay, conditions: HeLa L1 artificial-intron reporter cells, doxycycline 500 ng/mL, 72 h, numeric bounds

IC50 | Compound
> 30000 nM | N#C[C@]1(CO)O[C@@H](n2cc(F)c(N)nc2=O)[C@@H](F)[C@@H]1O [Compound 166]
